According to patent US20190249166A1, “Antidote for Chondroitinase” (priority 2018, published 2019):

Assays:
intervertebral disc [1] = test: Disc height index (DHI) by Micro-CT after intradiscal injection in rabbits; type: in vivo, New Zealand rabbits; conditions: IVD injected with 0.05 U and 0.15 U chondroitinase ABC only
chondroitinase ABC [2] = biological target: T1, chondroitinase ABC (Proteus vulgaris, UniProt P59807); test: Disc dissolution assay with bovine tail nucleus pulposus, absorbance at 232 nm; type: biochemical
T1 sequence (P59807 25-1021): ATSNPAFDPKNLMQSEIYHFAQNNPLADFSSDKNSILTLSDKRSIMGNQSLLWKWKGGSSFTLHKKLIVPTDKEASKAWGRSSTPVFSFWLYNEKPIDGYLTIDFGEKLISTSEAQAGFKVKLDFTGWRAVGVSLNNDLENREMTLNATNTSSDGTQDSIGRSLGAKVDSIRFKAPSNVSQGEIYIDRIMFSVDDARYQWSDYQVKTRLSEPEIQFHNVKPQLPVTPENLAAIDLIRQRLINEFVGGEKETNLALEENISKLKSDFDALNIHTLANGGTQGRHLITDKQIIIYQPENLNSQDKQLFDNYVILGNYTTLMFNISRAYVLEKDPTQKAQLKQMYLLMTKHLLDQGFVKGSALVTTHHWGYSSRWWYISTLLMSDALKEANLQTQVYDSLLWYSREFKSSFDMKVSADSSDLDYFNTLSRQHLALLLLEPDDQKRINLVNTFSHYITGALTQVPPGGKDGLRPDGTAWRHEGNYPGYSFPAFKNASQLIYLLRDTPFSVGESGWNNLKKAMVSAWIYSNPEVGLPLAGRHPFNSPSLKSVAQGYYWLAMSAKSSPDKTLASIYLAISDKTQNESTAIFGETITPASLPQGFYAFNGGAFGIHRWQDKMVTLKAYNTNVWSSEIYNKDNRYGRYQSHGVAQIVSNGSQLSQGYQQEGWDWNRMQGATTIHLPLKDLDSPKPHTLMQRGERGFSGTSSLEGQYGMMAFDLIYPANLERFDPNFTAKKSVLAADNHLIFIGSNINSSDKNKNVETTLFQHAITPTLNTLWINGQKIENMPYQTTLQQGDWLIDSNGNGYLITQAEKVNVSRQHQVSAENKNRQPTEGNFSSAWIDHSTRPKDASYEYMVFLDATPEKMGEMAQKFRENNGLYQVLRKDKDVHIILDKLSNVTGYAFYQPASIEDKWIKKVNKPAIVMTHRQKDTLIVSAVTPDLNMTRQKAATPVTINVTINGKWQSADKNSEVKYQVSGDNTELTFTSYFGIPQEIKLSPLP
From the text: In the case of using chondroitinase as a chemonucleolysis agent, the site of injection is a gel-like nucleus pulposus which is dense with chondroitin sulfate, collagen, and the other extra-cellular matrix. To evaluate the effect of these matrices on the inhibition, a disc dissolution assay can be conducted. In the experiment, the nucleus pulposus, of which chondroitin sulfate is composed of 65% dry weight, are collected from bovine tails. […]
Introducing the non-substrate GAG, e.g. heparin, into the solution together with the chondroitinase, results in suppression of the release of chondroitin sulfate tetrasaccharide and/or disaccharide from the nucleus pulposus sample, is therefore a strong indication of the inhibitory and antidote effect on the enzyme. This inhibition of tetrasaccharide/disaccharide release is reflected by the reduction of the absorbance at 232 nm when compared with the buffer solution in the presence chondroitinase only. […]
In disc dissolution assay, 6 intervertebral discs were obtained from a bovine tail. […] The absorbance at 232 nm of each solution was measured at 0 hours, 5 hours, and 20 hours after the immersion of the nucleus pulposus. The increase in absorbance was predominantly due to the dissolution of the small-molecule-containing unsaturated carbon-carbon double bond from the nucleus pulposus. […]

intervertebral disc [3] = test: Disc height index (DHI) by Micro-CT after intradiscal injection in rabbits; type: in vivo, New Zealand rabbits; conditions: for DHI, with heparin / effect on DHI reduction caused by chondroitinase ABC: 0.35 mg heparin
Description: Being used as an antidote, the non-substrate GAG of the present invention is effective in vivo. In the case of chemonucleolysis by chondroitinase ABC, the enzyme is injected into the nucleus pulposus for partial digestion. The effective antidote will be able to inhibit the activity of chondroitinase ABC intradiscally, as well as the reduction of the size of the intervertebral disc. […] When comparing to the control animal, for which the intervertebral disc is injected with Chondroitinase ABC only, the reduction of the disc height can only be observed in the control animal. The detailed experimental result is illustrated in Example 6.
New Zealand rabbits weighing 2.5-3.0 kg were divided into two groups: (1) injection of Chondroitinase ABC (0.05 U and 0.15 U) and heparin (0.35 mg); and (2) injection of chondroitinase ABC (0.05 U and 0.15 U). Before injection of chondroitinase ABC with or without heparin, rabbits were fixed in the dorsal position and anesthetized by 10% chloral hydrate (1 ml/kg). The intervertebral disc (IVD) was located by means of portable x-ray fluoroscope and the injection of the chondroitinase ABC with or without heparin was under fluoroscopic guidance. Rabbits were sacrificed just after the injection and 3 weeks after of injection for collecting the spine. The disc height index (DHI) analyzed by using LaTheta™ Micro-CT scanners (Hitachi-Aloka) at a resolution of 48 um (FIG. 7) and is listed in Table 2.

chondroitinase ABC [4] = biological target: T1, chondroitinase ABC; test: Time profile of inhibition of chondroitinase ABC by heparin, absorbance at 232 nm; type: biochemical
Description: In one embodiment, the inhibition of chondroitinase ABC by heparin could be at a particular time point during the enzymatic treatment, so that the enzymatic action can be precisely terminated. […] The enzymatic reaction in the mixture, which is the digestion of the chondroitin sulfate polymer into unsaturated oligosaccharide or disaccharide, can be monitored at 232 nm with incubation in 37° C. The reaction can be incubated for 5 hours and at 1.5 and 2.5 hours, with suitable concentrations of heparin including, but not limited to, 0.1-0.01 times the chondroitin sulfate, being introduced for evaluating the time response of the inhibition effect. Detailed experimental results are illustrated in example 5.
Chondroitin sulfate and chondroitinase ABC were introduced into 50 mM Tris HCl buffered solution (pH 7.6), to a final concentration of 1 mg/ml and 0.001 U/ml. […] At time of 0 hour, 1.5 hour, and 2.5 hour, 0.01 mg/ml heparin was introduced into the reaction mixture separately into 3 reaction mixture, where the remaining reaction mixture was sampled and monitored at the same time interval as the 3 reaction mixture with heparin introduction. The progress of the enzymatic reaction was monitored by measuring the absorbance at 232 nm of a sample taken from the reaction mixture every 30 min.

chondroitinase ABC [5] = biological target: T1, chondroitinase ABC; test: Electrophoretic mobility shift assay (EMSA) of chondroitinase ABC and heparin; type: binding; conditions: 20 μg chondroitinase ABC with 3.8 μg heparin (about 0.2 nmol each), room temperature 30 min
From the text: Further experiments can be applied to show the direct interaction, or more precisely binding, between GAG and chondroitinase. One of the experimental methods that can show the direct interaction between non-substrate GAG and chondroitinase (without introducing other molecule, like the substrate) is the electrophoretic mobility shift (EMSA) assay.
The principle of EMSA is that the mobility of biomolecules under electrophoresis is affected by the size and charge of the biomolecule. […] The overall size will increase and the mobility is usually changed in the gel electrophoresis. In other words, a shift in the position of the biomolecule in the gel will be observed if there is binding between the biomolecules. For studying the interaction between chondroitinase and non-substrate GAG, EMSA is conducted as described. 5-30 μg chondroitinase is mixed with (a) 0.5 molar ratio, (b) equal molar, and (c) 2 folds molar excess of GAG, and incubated at room temperature for at least 20 min, and more preferred 30 min. These mixtures are loaded onto native polyacrylamide gel and subjected to electrophoresis for 2.5 hours at 100 V. Two identical gels are prepared but stained with different staining solution (Alcian blue for GAG, and Coomassie blue for chondroitinase). […]

chondroitinase ABC [6] = biological target: T1, chondroitinase ABC; test: Chondroitinase enzyme inhibition assay, absorbance at 232 nm with chondroitin sulfate C; type: biochemical; conditions: 0.0125 mg/ml heparin; 0.01 U/ml chondroitinase ABC; 0.1 mg/ml chondroitin sulfate C; 37° C., 20 min
Description: Freeze-dried chondroitinase is reconstituted in 0.1-10 mg/ml BSA solution, preferably 1 mg/ml. The chondroitinase solution is serially diluted into a final concentration in the range of 0.065-0.35 U/ml, and more preferably 0.260-0.175 U/ml. Chondroitin sulfate C is dissolved in a buffer at pH 7.0-9.0, preferably at pH 8.0±0.1 with Tris-HCl, sodium phosphate, sodium acetate or sodium borate, preferably 10-250 mM, and more preferably 50 mM Tris-HCl as buffer. The final concentration of chondroitin sulfate C is at the range of 0.2-20 mg/ml. Chondroitinase solution and the chondroitin sulfate C solution are pre-incubated in 37° C. and mixed in a ratio of 1:50. The reaction mixture is further incubated for 20 min for allowing the enzymatic reaction proceeding. The absorbance of the reaction mixture is continuously monitored by spectrophotometer and the rate of the reaction is calculated by multiplying the slope of the absorbance-time curve with millimolar extinct coefficient of the reaction product at 232 nm (which is reported to be 5.5.). […]
2 mg/ml Chondroitin sulfate C solution was prepared by dissolving in buffer at pH 8.0 Tris-HCl (50 mM). […] The reaction mixture was further incubated at 37° C. for 20 min in spectrophotometer and the absorbance at 232 nm was continuously monitored. […] In FIG. 3, the absorbance of the solution without the presence of heparin at 232 nm increased linearly.

Substance	effect on DHI (intervertebral disc [1])	absorbance at 232 nm of solution (disc dissolution) (chondroitinase ABC [2]; 1U/ml chondroitinase ABC without heparin, compared with PBS and sodium lactate)	DHI, without heparin (intervertebral disc [3]; 0.05 U chondroitinase ABC only)	DHI, without heparin (intervertebral disc [3]; 0.15 U chondroitinase ABC only)	DHI, without heparin (intervertebral disc [3]; 3 weeks after injection, 0.05 U chondroitinase ABC only)	DHI, without heparin (intervertebral disc [3]; 3 weeks after injection, 0.15 U chondroitinase ABC only)	rate of increase in absorbance at 232 nm of the reaction mixture (chondroitinase ABC [4]; 0.01 mg/ml heparin introduced at 0, 1.5 or 2.5 hour, 1 mg/ml chondroitin sulfate, 0.001 U/ml chondroitinase ABC, 37° C., 5 hours)	persistence of inhibition of the enzymatic reaction (chondroitinase ABC [4]; 0.01 mg/ml heparin, throughout the 5 hours reaction period)	absorbance at 232 nm of solution (disc dissolution) (chondroitinase ABC [2]; 1U/ml chondroitinase ABC and 1 mg/ml heparin in PBS with 10 mM sodium lactate, 0, 5, 20 hours)	DHI, with heparin (intervertebral disc [3]; 0 day after injection, 0.05 U chondroitinase ABC)	DHI, with heparin (intervertebral disc [3]; 0 day after injection, 0.15 U chondroitinase ABC)	effect on DHI reduction caused by chondroitinase ABC (intervertebral disc [3]; 0.05 U chondroitinase ABC)	effect on DHI reduction caused by chondroitinase ABC (intervertebral disc [3]; 0.15 U chondroitinase ABC)	DHI, with heparin (intervertebral disc [3]; 3 weeks after injection, 0.05 U chondroitinase ABC)	DHI, with heparin (intervertebral disc [3]; 3 weeks after injection, 0.15 U chondroitinase ABC)	binding to chondroitinase ABC (EMSA, Alcian Blue stain) (chondroitinase ABC [5])	inhibition of enzymatic reaction of chondroitinase (absorbance at 232 nm) (chondroitinase ABC [6])
Chondroitinase ABC	significantly reduction of DHI	the absorbance increased remarkably	0.082	0.071	0.044	0.048											
heparin							significantly reduced	remains stable and constant	significantly reduced the absorbance	0.081	0.085	significantly inhibited the DHI reduction	inhibited the DHI reduction but the inhibitory effect was not as significant as at the lower concentration	0.082	0.066	binds tightly to the enzyme	completely inhibited
